{
  "source": "patent US20230094545A1",
  "about": "“S1P RECEPTOR MODULATORS” (AKAAL PHARMA PTY LTD, priority 2020, published 2023)",
  "key": {"[1]": {"test_system": "arthritis pain", "test": "Topical treatment of arthritis patients with pain", "assay_type": "in vivo, human", "settings": "for numerical rating scale for pain scoring (NRS): baseline Day 1 7.1±1.38", "procedure": "(§1) Fifteen arthritis patients who were experiencing pain were treated with the compound of Formula I@60 mg daily dosing as a topical treatment for seven consecutive days. […] The subjects blood parameters, urine alysis, vital signs, physical examination, ECG were normal.\n(§2) The numerical rating scale for pain scoring (NRS) in a compound of Formula I treated group […] reduced from 7.1±1.38 (Day 1; baseline) to 5.8±2.12 (Day 3) and 4.8±2.72 (Day 7). The mean NRS score change from baseline was −1.3±1.54 (Day 3) and −2.3±2.06 (Day 7) points in arthritis participants treated with compound of Formula I. In osteoarthritis participants, the mean change in pain score from Day 1 to Day 7 was of −1.9±1.46 and −1.9±1.57 for pain felt and worst pain felt in 24 hours, respectively. […] The systemic exposure on day 7 ranged from 0.42 ng/mL to 2.44 ng/mL (average 0.79 ng/mL)."}, "[2]": {"test": "Topical treatment of arthritis patients with pain", "assay_type": "in vivo, human", "settings": "human, in vivo, topical, 60 mg daily, day 7, 60 mg daily topical", "procedure": "as §1, §2"}, "[3]": {"test_system": "RAW 264.7 cell line (monocyte cells)", "test": "Heat-killed P. acne challenged RAW 264.7 cells, cytokines by ELISA", "assay_type": "cell-based", "settings": "Mus musculus, RAW264.7, compared to untreated", "procedure": "RAW 264.7 cell line (monocyte cells) challenged with the heat-killed Propionibacterium acne (P. acne) and incubated for 1 hour and were divided into four groups as G1=not challenged with P. acne, G2=challenged with P. acne but untreated, G3=challenged with P. acne and treated with 1 μM of compound of formula I, G3=challenged with P. acne and treated with 3 μM of compound of formula I. The ELISA method was used to analyze the effect of compound of formula I on the secretion of proinflammatory cytokines the TNFα and IL6. Compound of formula I inhibits the cytokines in P. acne challenged monocyte cells. The results are shown in below FIG. 6. The compound of formula I inhibit the secretion of TNFα@1 μM=˜42% and @3 μM=˜69% and IL6@1 μM=˜27% and @3 μM=˜42% compared to untreated in P. acne challenged cell line."}, "[4]": {"test_system": "burn wound and scratch wounds", "test": "Topical formulation in wound patients (case reports)", "assay_type": "in vivo, human", "procedure": "A patient presented with a second degree burn wound on the inner surface of their middle finger of their left hand, suffering from swelling, blistering and pain at the site of injury. A topical gel formulation of compound of formula (I) was applied topically to the site of injury.\nA patient presented with a scratch wounds on hands while cleaning gutters. These become inflamed and painful in 3 hours."}, "[5]": {"test_system": "dinitrofluorobenzene (DNFB)-induced delayed-type hypersensitivity", "test": "DNFB-induced delayed-type hypersensitivity (DTH)", "assay_type": "in vivo", "settings": "3 mg/kg twice daily", "procedure": "The efficacy of compound of formula (I) was determined in an animal model of dinitrofluorobenzene (DNFB)-induced delayed-type hypersensitivity (DTH), an inflammatory model. The animals (n=9) were treated with the vehicle or a compound of formula (I), receiving a twice daily dose of 3 mg/kg. The efficacy end points were measured as Ear thickness before challenge and 24 h after challenge. Ear weight was measured 24 h after challenge. At sacrifice, right ear samples were collected and used for tissue MPO activity."}, "[6]": {"test": "Solubility in water / precipitation in buffer", "assay_type": "physicochemical", "settings": "listed as compound of formula I", "procedure": "To solubilize the free base in water the novel technology AvignaSOL (N,N-Dimethyl hexanamide; patent number: U.S. Pat. No. 9,186,338B2) and its higher derivatives such as octinamide, decamide which improve the absorption of various poorly soluble drugs was used. AvignaSOL as 1-70% ww % assisted the solubilization of free base as 1 gm/20 mL of water. The solubility of free base in water assisted its direct use in various formulation such as creams, gels, solutions which together with the permeation enhancing effect will be harnessed to improve skin penetration and/or bioavailability and in altering the pharmacokinetics and pharmacodynamics profile of free base.\nThe AvignaSOL having a log P of ˜1.6 hinder the release by increasing the hydrophobicity of the delivery system. […] The combination of compound of formula I with other ingredients including sustained release enhancer with or without AvignaSOL were prepared as novel formulation techniques to improve and/or alter the pharmacokinetics and pharmacodynamics profile of compound of Formula I."}, "[7]": {"test_system": "mould", "test": "Anti-mould (antifungal) activity on wheat flour bread", "settings": "1% ww and 3% ww water solution on bread, day 14, room temperature", "procedure": "The compound of formula I solution as 0% ww, 1% ww and 3% ww as I mL water solution was added to a glass jar (5 mL) containing the fresh wheat flour bread (1 gm). The content was mixed well in order to wet the bread with solution. The content was kept in open glass cylinder for 14 days at room temperature and light (normal conditions) and the photos of Day 1 and Day 14 were taken (FIGS. 5A and B respectively). […] The mould is common in many skin indications and other human, animal and plant diseases. For example, Rhizopus stolonifera."}, "[8]": {"test": "Topical treatment of psoriasis patients", "assay_type": "in vivo, human", "settings": "human, in vivo, 30 mg daily; after topical applications, below the limit of quantification; read-out: systemic exposure", "procedure": "(§3) Twelve psoriasis patients were treated with the compound of Formula I@30 mg daily dosing under occlusion as topical treatment for 28 consecutive days. […] The systemic exposure after topical applications was recorded below the limit of quantification (BLQ) <0.400 ng/mL."}, "[9]": {"test_system": "psoriasis", "test": "Topical treatment of psoriasis patients", "assay_type": "in vivo, human", "procedure": "as §3"}, "[10]": {"test": "8 mg daily oral dosing for 7 days in healthy human subjects: systemic exposure, lymphocyte counts", "assay_type": "in vivo", "procedure": "One cohort (8 human subjects) was treated daily with 8 mg oral dosing for 7 consecutive days."}, "[11]": {"settings": "read-out: inhibition of secretion of IL6"}, "[12]": {"settings": "read-out: inhibition of secretion of TNFα"}, "[13]": {"settings": "individual healthy human subjects, 8 mg oral daily for 7 days, listed as compound of formula (1)"}},
  "note": "Several values for one entry are separate records, joined by “and”; a condition that tells them apart may be missing. Equal values may be shown once. Read-outs that look alike come from different tables or passages of the source.",
  "data": [
    {"smiles": "CCCOc1ccc(-c2nc(-c3ccc4oc(C(N)(CO)CO)cc4c3)no2)cc1Cl", "note": "[compound of formula (I)]", "values": [
      {"measurement": "absolute lymphocyte count", "setting": "[1]; 60 mg daily topical, 7 days", "result": "no systemic change in the absolute lymphocyte count"},
      {"measurement": "safety and tolerability", "setting": "[1]; 60 mg daily topical, seven days", "result": "safe and well tolerated"},
      {"measurement": "mean NRS score change from baseline", "setting": "[1]; Day 3", "result": "−1.3±1.54", "unit": "points"},
      {"measurement": "numerical rating scale for pain scoring (NRS)", "setting": "[1]; Day 3", "result": "5.8±2.12"},
      {"measurement": "mean NRS score change from baseline", "setting": "[1]; Day 7", "result": "−2.3±2.06", "unit": "points"},
      {"measurement": "numerical rating scale for pain scoring (NRS)", "setting": "[1]; Day 7", "result": "4.8±2.72"},
      {"measurement": "positive PGART response", "setting": "[1]; all treated participants (n=12), Day 3, 60 mg daily topical", "result": 41.7, "unit": "% participants"},
      {"measurement": "positive PGART response", "setting": "[1]; all treated participants (n=12), Day 7, 60 mg daily topical", "result": 58.3, "unit": "% participants"},
      {"measurement": "mean change in pain score, pain felt", "setting": "[1]; osteoarthritis participants, Day 1 to Day 7, p=0.0153", "result": "−1.9±1.46"},
      {"measurement": "mean change in pain score, worst pain felt in 24 hours", "setting": "[1]; osteoarthritis participants, Day 1 to Day 7, p=0.0205", "result": "−1.9±1.57"},
      {"measurement": "positive PGART response", "setting": "[1]; participants with osteoarthritis, Day 3", "result": 28.6, "unit": "% participants"},
      {"measurement": "positive PGART response", "setting": "[1]; participants with osteoarthritis, Day 7", "result": 57.1, "unit": "% participants"},
      {"measurement": "concentration at 7 day", "setting": "[2]; read-out: systemic exposure, average", "result": 0.79, "unit": "ng/mL"},
      {"measurement": "concentration at 7 day", "setting": "[2]; read-out: systemic exposure, range", "result": "0.42 to 2.44", "unit": "ng/mL"},
      {"measurement": "inhibition at 1 µM", "setting": "[3]; [11]", "result": "~27", "unit": "%"},
      {"measurement": "inhibition at 1 µM", "setting": "[3]; [12]", "result": "~42", "unit": "%"},
      {"measurement": "inhibition at 3 µM", "setting": "[3]; [11]", "result": "~42", "unit": "%"},
      {"measurement": "inhibition at 3 µM", "setting": "[3]; [12]", "result": "~69", "unit": "%"},
      {"measurement": "adverse side effects", "setting": "[4]; both cases", "result": "No adverse side effects"},
      {"measurement": "swelling and pain of scratch wounds", "setting": "[4]; ointment formulation, one patient", "result": "swelling and pain reduced dramatically"},
      {"measurement": "swelling and blistering of burn wound", "setting": "[4]; topical gel formulation, after 10 minutes, one patient", "result": "swelling and blistering had visibly reduced dramatically"},
      {"measurement": "pain of burn wound", "setting": "[4]; topical gel formulation, one patient", "result": "significant pain relief"},
      {"measurement": "MPO activity (ear tissue)", "setting": "[5]", "result": "significantly reduced"},
      {"measurement": "reduction of ear thickness", "setting": "[5]; 24 h after challenge, p<0.0001", "result": "~70", "unit": "%"},
      {"measurement": "reduction of ear weight", "setting": "[5]; 24 h after challenge, p<0.01", "result": "~50", "unit": "%"},
      {"measurement": "solubility in water", "setting": "[6]", "result": "soluble in water"},
      {"measurement": "mould growth", "setting": "[7]", "result": "preventing mould growth at day 14"},
      {"measurement": "concentration at 28 days", "setting": "[8]", "result": "< 0.4", "unit": "ng/mL"},
      {"measurement": "absolute lymphocyte count", "setting": "[9]; 30 mg daily topical, 28 days", "result": "no systemic change in the absolute lymphocyte count"},
      {"measurement": "tolerability", "setting": "[9]; 30 mg daily topical, 28 days", "result": "well tolerated"},
      {"measurement": "local psoriasis severity index (LPSI) score", "setting": "[9]; day 28, from 5.8 (day 1), 30 mg daily topical under occlusion, p<0.0016", "result": "−2.1"},
      {"measurement": "plaque area", "setting": "[9]; some subjects, image analysis", "result": "reduction in plaque area"},
      {"measurement": "bradycardia and lymphopenia", "setting": "[10]; 2 g daily topical 3% ww for 3 weeks and oral 8 mg daily for one week", "result": "without event of bradycardia and significant lymphopenia"},
      {"measurement": "concentration at 7 days", "setting": "[10]; human, in vivo, po, 8 mg daily, humans, 8 mg oral daily for 7 days", "result": "~53", "unit": "ng/mL"},
      {"measurement": "measured lymphopenia", "setting": "[10]; humans, 8 mg daily dosing for one week", "result": "up to 40%"},
      {"measurement": "lymphopenia", "setting": "[10]; humans, 8 mg oral daily for 7 consecutive days", "result": "mild lymphopenia"},
      {"measurement": "systemic exposure (mean / average)", "setting": "[10]; humans, 8 mg oral daily for 7 days", "result": 53.3, "unit": "ng/mL"},
      {"measurement": "ALC Change (%)", "setting": "[10]; [13]", "result": "−33.33% and −27.66% and −35.71% and 0% and +40% and −22.58% and −15.56% and −20%"},
      {"measurement": "CD3 Change (%)", "setting": "[10]; [13]", "result": "−18.75% and −30.32% and −30.58% and −0.6% and −12.58% and −5.77% and −12.36% and −11.86%"},
      {"measurement": "CD4 Change (%)", "setting": "[10]; [13]", "result": "−22.41% and −33.62% and −32% and −5.2% and −10.91% and −8.21% and −25.3% and −7.87%"},
      {"measurement": "CD8 Change (%)", "setting": "[10]; [13]", "result": "−19.05% and −27.87% and −31.74% and −1.67% and −13.79% and 0% and −7.06% and −11.86%"}
    ]}
  ]
}
